Consider 1 molecule from US20210353579A1, “HIGH PENETRATION COMPOSITIONS AND USES THEREOF” (Techfields Pharma Co., Ltd., priority 2006, published 2021).

Experiment [1] relates to Human breast cancer cells (BCAP-37). The experiment can be described thus: Human breast cancer xenograft in nude mice, topical. Conditions: day 42; 30 μl of 5% (1.5 mg) topically every 8 hours from day 14; control 800 ± 100. An outline of the steps: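 BCAP-37 tumour tissue (2-3 mm^3) was xenografted subcutaneously into the front leg of nude BALB mice, 7 per group. Compounds were applied topically as 30 μl of 5% solution (1.5 mg) in acetone or water.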
In general terms: A xenograft is tissue or cells of one species grown in another, often human tumour cells in immunodeficient mice.

Experiment [2] deals with Human colon cancer cells (LS174J). The experiment can be described thus: Human colon cancer xenograft in nude mice, topical. Conditions: day 30, about 30 μl of 5% solution (1.5 mg) topically applied. The source says:
Human colon cancer cells (LS174J, 2-3 mm^3 of tumor tissue was used in each mouse) are subcutaneously xenografted into the front leg of nude mice (BALB).

For experiment [3], the system named is rats (SLAC/GK, type 2 diabetes). The experiment can be described thus: Blood glucose in type 2 diabetes rats, transdermal. The experiment is classed as in vivo, rat. As to conditions: diabetic rats (SLAC/GK). An outline of the steps:
(§1)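 GK type 2 diabetic rats (n=7) received the HPPs transdermally on a shaved ~1.5 cm^2 area of the back, at a dose equal to 20 mg/kg of NSAIAs, once daily for 5 weeks. Non-fasting blood glucose was measured every 3 days at 3 pm from week 2 to week 5, and blood lipids at the end of week 5.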

The test system is the same in experiment [4]. The experiment can be described thus: Blood lipid in type 2 diabetes rats, transdermal. The experiment is classed as in vivo, rat. The essentials: as §1
Experiment [5] shares this test system. Nature of the experiment: Blood glucose in type 2 diabetes rats, oral with food. The format is in vivo, rat. The essentials:
(§2)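 Compounds (dosed equivalent to 20 mg/kg of NSAIAs) mixed in food and given orally daily for 5 weeks to rats (n=7). Non-fasting blood glucose measured every 3 days at 3 pm from week 2 to week 5; blood lipids measured at end of week 5.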

Experiment [6] has the same test system. Nature of the experiment: Blood lipid in type 2 diabetes rats, oral with food. The format is in vivo, rat. The essentials: as §2
Experiment [7] has as its system mice (SLAC:NOD-IDDM, type 1 diabetes). Nature of the experiment: Blood glucose in type 1 diabetes mice, transdermal. The experiment is classed as in vivo, mouse. An outline of the steps:
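NOD-IDDM type 1 diabetic mice (n=7) received prodrug transdermally on shaved back skin (~1.5 cm²), at a dose equivalent to 30 mg/kg NSAIA, once daily for 7 weeks. Non-fasted blood glucose was measured every 3 days at 3 pm from week 4 to week 7.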

In a further experiment the test system is mice (MRL/LPR). Nature of the experiment: Anti-lupus erythematosus activity. The experiment is classed as in vivo, mouse. As to conditions: 30 mg/kg topically twice per day, after 6 weeks.
The next experiment relates to normal rats. Nature of the experiment: Blood glucose in normal rats, oral with food. The format is in vivo, rat.
[8] abbreviates: baseline, equal to 20 mg/kg of NSAIAs.
Setting [9] is: end of the fifth week, equal to 20 mg/kg of NSAIAs once per day.
Where [10] appears, read: end of the fifth week, equal to 20 mg/kg of NSAIAs every day.

As for `CC(=O)Oc1ccccc1C(=O)O.CCN(CC)CCOC(=O)c1ccccc1OC(C)=O` [P-1, diethylaminoethyl acetylsalicylate.acetylsalicylic acid salt], the Tumor size in [1] is on record as 150 ± 50 mm^3; in experiment [2] it was 420 ± 100 mm^3. The “Blood glucose, Average” value worked out at 6.5 ± 1 mmol/L in [3] (average second to fifth week, no fasting, equal to 20 mg/kg of NSAIAs once per day for 5 weeks) and 6.5 ± 1 mmol/L in [7] (average fourth to seventh week, no fasting, equal to 30 mg/kg of NSAIAs once per day for 7 weeks). In addition, the “Blood glucose, Baseline” value in [3] (baseline, equal to 20 mg/kg of NSAIAs once per day) turned out to be 16.1 ± 3 mmol/L; in experiment [7] (baseline, equal to 30 mg/kg of NSAIAs), 26.1 ± 5 mmol/L. For the same molecule, the “Cholesterol (HDL), Baseline” value in experiment [4] (setting [8]) came out at 1.4 ± 0.2 mmol/L; in experiment [6] (setting [8]), 1.5 ± 0.2 mmol/L. Also, the figures for the “Cholesterol (total), Baseline” value in experiment [4] (setting [8]) and in [6] (setting [8]) were 7.7 ± 0.4 mmol/L and 7.6 ± 0.4 mmol/L, respectively. The “Triglycerides, Baseline” value in experiment [4] (setting [8]) is reported as 5.4 ± 0.5 mmol/L; in experiment [6] (setting [8]) it was 5.7 ± 0.5 mmol/L. The “Cholesterol (HDL), Average” value in experiment [4] (setting [9]) is recorded as 1.5 ± 0.2 mmol/L; in experiment [6] (setting [10]), 1.6 ± 0.2 mmol/L. For the same molecule, the “Cholesterol (total), Average” value was 4.0 ± 0.3 mmol/L in experiment [4] (setting [9]) and 4.1 ± 0.3 mmol/L in experiment [6] (setting [10]). Further, the “Triglycerides, Average” value in [4] (setting [9]) was found to be 1.5 ± 0.2 mmol/L; in [6] (setting [10]) it was 1.4 ± 0.2 mmol/L. Moreover, in experiment [5] (average second to fifth week, no fasting, equal to 20 mg/kg of NSAIAs every day for 5 weeks), the “Blood glucose, Diabetic rats, Average” value turned out to be 6.5 ± 1 mmol/L. Further, the “Blood glucose, Diabetic rats, Baseline” value in [5] (setting [8]) was 16.5 ± 3 mmol/L. Also, in the experiment on mice (MRL/LPR), the “skin lesions and lupus nephritis” value is “all skin lesions and lupus nephritis were resolved”. Moreover, the “Blood glucose, Normal rats, Average” value with normal rats (average second to fifth week, equal to 20 mg/kg of NSAIAs every day) turned out to be 6.5 ± 1 mmol/L. In addition, in the experiment with normal rats (setting [8]), the “Blood glucose, Normal rats, Baseline” value amounted to 6.3 ± 1 mmol/L.
